The source made the active and inactive calls. The rule behind the calls is not given here.
Columns and labels:
[1] = test system: MGC-803; test: Antiproliferative activity against human MGC-803 cells assessed as inhibition of cell proliferation measured after 48 hrs by CCK8 assay; assay type: functional, cell-based; conditions: MGC-803, 48 h
[2] = test system: A549; test: Antiproliferative activity against human A549 cells assessed as inhibition of cell proliferation measured after 48 hrs by CCK8 assay; assay type: functional, cell-based; conditions: A549, 48 h
[3] = test system: KYSE-30; test: Antiproliferative activity against human KYSE-30 cells assessed as inhibition of cell proliferation measured after 48 hrs by CCK8 assay; assay type: functional, cell-based; conditions: KYSE-30, 48 h
[4] = test system: KYSE-450; test: Antiproliferative activity against human KYSE-450 cells assessed as inhibition of cell proliferation measured after 48 hrs by CCK8 assay; assay type: functional, cell-based; conditions: KYSE-450, 48 h
[5] = test system: KYSE-510; test: Antiproliferative activity against human KYSE-510 cells assessed as inhibition of cell proliferation measured after 48 hrs by CCK8 assay; assay type: functional, cell-based; conditions: KYSE-510, 48 h
[6] = test system: ECa-109 cell line; test: Antiproliferative activity against human Eca-109 cells assessed as inhibition of cell proliferation measured after 48 hrs by CCK8 assay; assay type: functional, cell-based; conditions: ECa-109, 48 h
[7] = target: Tubulin (Homo sapiens) (UniProt P68371+Q9H4B7+P0DPH7+P68366+Q13509+Q71U36+P04350+Q3ZCM7+P07437+P68363+Q9BQE3+Q6PEY2+Q13885+Q9BVA1+Q9BUF5); test: Inhibition of tubulin polymerization in human KYSE-450 cells assessed by disorganised spindle at 1.25 to 2.5 uM measured after 48 hrs by immunoflourescence assay relative to colchicine; assay type: cell-based; conditions: dose 1.25-2.5 µM
[8] = target: Tubulin; test: Inhibition of tubulin polymerization in human KYSE-450 cells measured by EBI competition assay relative to colchicine; assay type: cell-based
[9] = test system: KYSE-450; test: Antiproliferative activity against human KYSE-450 cells assessed reduced cell viability at 1 to 80 uM measured after 48 hrs; assay type: functional, cell-based; conditions: dose 1-80 µM
[10] = test system: KYSE-450; test: Antiproliferative activity against human KYSE-450 cells assessed reduced cell viability at 0.313 to 2.5 uM; assay type: functional, cell-based; conditions: dose 0.313-2.5 µM, time 20-40 hrs, TDE = time-dependent effect
[11] = test system: KYSE-450; test: Antiproliferative activity against human KYSE-450 cells assessed reduced cell viability measured after 20 to 60 hrs; assay type: functional, cell-based; conditions: dose 0.313-2.5 µM, time 20-60 hrs
[12] = test system: KYSE-450; test: Induction of apoptosis in human KYSE-450 cells assessed by round cells at 0.313 to 2.5 uM measured after 48 hrs by DAPI staining based microscopic method; assay type: functional, cell-based; conditions: dose 0.313-2.5 µM
[13] = test system: KYSE-450; test: Induction of apoptosis in human KYSE-450 cells assessed by smaller nucleus at 0.313 to 2.5 uM measured after 48 hrs by DAPI staining based microscopic method; assay type: functional, cell-based; conditions: dose 0.313-2.5 µM
[14] = test system: KYSE-450; test: Induction of apoptosis in human KYSE-450 cells assessed by concentrated nucleus at 0.313 to 2.5 uM measured after 48 hrs by DAPI staining based microscopic method; assay type: functional, cell-based; conditions: dose 0.313-2.5 µM
[15] = test system: KYSE-450; test: Antiproliferative activity against human KYSE-450 cells assessed as inhibition of colony formation at 0.188 uM measured after 7 days by colony formation assay; assay type: functional, cell-based; conditions: time 7.0 day

COc1cc(C(=O)N2CCCCc3ccccc32)cc(OC)c1OC
IC50 [1]: 4.3 µM
IC50 [2]: 21.7 µM
IC50 [3]: 16.6 µM

COc1cc(C(=O)N2CCc3ccccc32)cc(OC)c1OC
IC50 [1]: 7.57 µM
IC50 [2]: 22 µM
IC50 [3]: 7.72 µM

COc1cc(C(=O)N2CCc3cc([N+](=O)[O-])ccc32)cc(OC)c1OC
IC50 [1]: 8.32 µM
IC50 [2]: 17.7 µM
IC50 [3]: 6.55 µM

COc1ccc(C(=O)N2CCc3cc(Br)ccc32)cc1
IC50 [1]: 18.8 µM
IC50 [2]: 21.1 µM
IC50 [3]: 18.9 µM

O=C(c1ccc(F)cc1)N1CCc2cc(Br)ccc21
IC50 [1]: 24.1 µM
IC50 [2]: 18.9 µM
IC50 [3]: 22.1 µM

Cc1ccc(CC(=O)N2CCc3cc(Br)ccc32)cc1
IC50 [1]: 38.2 µM
IC50 [2]: > 40 µM
IC50 [3]: 33.2 µM

COc1ccc(CC(=O)N2CCc3cc(Br)ccc32)cc1
IC50 [1]: 28.7 µM
IC50 [2]: 24.8 µM
IC50 [3]: > 40 µM

O=C(Cc1ccc(F)cc1)N1CCc2cc(Br)ccc21
IC50 [1]: > 40 µM
IC50 [2]: > 40 µM
IC50 [3]: > 40 µM

O=C(Cc1ccccc1)N1CCc2cc(Br)ccc21
IC50 [1]: 82.8 µM
IC50 [2]: 28.5 µM
IC50 [3]: > 40 µM

O=C(Cc1ccc(Br)cc1)N1CCc2cc(Br)ccc21
IC50 [1]: 35.8 µM
IC50 [2]: > 40 µM
IC50 [3]: 20.7 µM

COc1cc2c(c(OC)c1OC)-c1ccc(OC)c(=O)cc1[C@@H](NC(C)=O)CC2 [COLCHICINE]
IC50 [1]: 1.07 µM
IC50 [2]: 0.19 µM
IC50 [3]: 0.28 µM

Cc1ccc(C(=O)N2CCc3cc(Br)ccc32)cc1
IC50 [1]: > 40 µM
IC50 [2]: 38.9 µM
IC50 [3]: > 40 µM

O=C(c1ccc(Br)cc1)N1CCc2cc(Br)ccc21
IC50 [1]: 33.6 µM
IC50 [2]: > 40 µM
IC50 [3]: 26.8 µM

COc1cc(C(=O)N2CCCc3ccccc32)cc(OC)c1OC
IC50 [1]: 4.41 µM
IC50 [2]: 23.7 µM
IC50 [3]: 6.72 µM

O=C(c1ccccc1)N1CCc2cc(Br)ccc21
IC50 [1]: 28.5 µM
IC50 [2]: > 40 µM
IC50 [3]: 20.3 µM

COc1cc(C(=O)N2CCc3cc(Br)ccc32)cc(OC)c1OC
IC50 [1]: 1.84 µM
IC50 [2]: 6.82 µM
IC50 [3]: 1.61 µM
IC50 [4]: 1.49 µM
IC50 [5]: 2.08 µM
IC50 [6]: 2.24 µM
inhibition [7]: Active
IC50 [8]: 3.4 µM
Activity [9]: Active
Activity [10]: Tde
Activity [11]: Dose-Dependent Effect
Activity [12]: Active
Activity [13]: Active
Activity [14]: Active
Activity [15]: Active

COc1cc(CC(=O)N2CCc3cc(Br)ccc32)cc(OC)c1OC
IC50 [1]: 22.4 µM
IC50 [2]: 24.8 µM
IC50 [3]: 20.2 µM

From ChEMBL document CHEMBL4811276, “WITHDRAWN: Discovery of indoline derivatives as anticancer agents via inhibition of tubulin polymerization” (Bioorg Med Chem Lett, 2021)
